This is an account of results in patent publication US20060127967A1, “In vitro test for studying compound predicting pharmacologic and/or harmacokinetic and/or pharmacodynamic parameters of a compound” (priority 2002, published 2006).

Counter-ions that a name gives are not always drawn.

The test system of one data set is Tetrahymena thermophila. As to the kind of experiment: Tetrahymena thermophila cell area, computerized morphometric/image analysis bioassay. The format is cell-based. The conditions noted are these: 6 hours exposure, various concentrations, at least 100 cells per sample. On the procedure:
Tetrahymena thermophila was grown axenically at 34 ?C in proteosepeptone yeast salts (PPYS) complex medium. Test cultures were prepared by inoculating the protozoa from a stock culture into PPYS to produce initial culture of ˜5000 cell/ml. The cell cultures were then grown for 24 hours at 34 ?C. In the beginning of the experiment the culture was transferred into 3 ml test tubes and exposed to the various concentrations of the tested material. Samples were withdrawn 6 hours following the exposure to the tested material. The samples fixed with formaldehyde solution were placed on the hemocytometer, observed under microscope and the area of tetrahymena was evaluated by computerized morphometric system/image analysis program. For each sample at least 100 cells were evaluated.

The nature of data set [1]: Permeation through Integra bi-layer membrane and human skin in Valia-Chien diffusion cells. The conditions noted are these: aqueous solution pH 7.2, receiver Tris buffer pH 7.2, 8 hours, permeation area 0.64 cm^2, HCl. The format is in vitro ADME. On the procedure: Permeation studies with aqueous solution of Propranolol HCl (pH 7.2) through Integra and human skin were carried out in Valia-Chien diffusion cells. The effective permeation area was 0.64 cm^2. The receiver compartment contained Tris buffer (pH 7.2) and the experiment lasted for 8 hours. The samples were withdrawn at 0, 1, 2, 4, 6 and 8 hours and the quantity of propranolol HCl permeated through the membrane was analyzed by validated HPLC method.

On to `C=CCc1ccccc1OCC(O)CNC(C)C` (stereo not shown) [Alprenolol hydrochloride], for which the “change in Tetrahymena thermophila cell area with increasing drug concentration in the medium” value in the data set on Tetrahymena thermophila is “decrease in the cell area”.

As for `CC(C)NCC(O)COc1cccc2ccccc12` (stereo not shown) [Propranolol HCl], the results for the “permeation constant (Kp) through Integra as compared to human skin” value in data set [1] and in data set [1] (listed as propranolol) were “close similarity” and “similar”, respectively.

Turning to `O=C([O-])c1ccccc1O.[Na+]` [sodium salicylate], the “change in Tetrahymena thermophila cell area with increasing drug concentration in the medium” value with Tetrahymena thermophila is “decrease in cell area”.
